Experimental data published in the METLIN SMRT retention time set (Domingo-Almenara et al. 2019).

Test: gradient 5% acetonitrile 3 min, to 50% in 2 min, to 85% in 15 min, held 3 min, 100 µL/min
Conditions: column: Zorbax Extend-C18 2.1 x 50 mm; eluents: water / acetonitrile, 0.1% formic acid
In short: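 Retention times come from adduct peaks that were picked computationally and then checked by hand. The standards, pure and pooled in mixtures of ~100 molecules, were run on a Zorbax Extend-C18 column (2.1 × 50 mm, 1.8 μm) at 100 μL/min with water and acetonitrile, each with 0.1% formic acid. Detection was by quadrupole time-of-flight mass spectrometry in positive and negative ionization mode, with a dead volume of 40 μL and a dwell volume of 900 μL.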

Row | RP-LC retention time [s] | Structure (SMILES)
1 | 882 | CC(CCc1ccccc1)NC(=O)C1CCN(S(=O)(=O)c2ccc3c(ccn3C)c2)CC1 (configuration not stated)
2 | 667 | COc1ccc(-c2nnc3n2CCN(Cc2cccc(C#N)c2)C3)cc1
3 | 659 | COc1ccc(CC(=O)NC2CCN(c3cc(-c4ccccc4)[nH]n3)C2)cc1OC (configuration not stated)
4 | 871 | O=C(CCc1ccccc1)Nc1ccc2c(c1)N(C(=O)c1ccco1)CCC2
5 | 585 | O=C(c1ccoc1)N1CCc2[nH]cnc2C1c1ccccc1 (configuration not stated)
6 | 922 | Cc1c(C(=O)N(C)C)cnn1-c1cc(-c2nc(C(C)(C)C)no2)ccn1
7 | 856 | CCN1c2cc(C(=O)NCc3ccc(SC)cc3)ccc2C(=O)N2CCCCC21 (configuration not stated)
8 | 991 | CC1=C(c2ccccc2)S(=O)(=O)N=C1N1CCCN(C(=O)C2CC2)CC1
9 | 682 | CCc1nc(NCc2ccc(OC)c(OC)c2)ncc1C(=O)O
10 | 791 | CCN(CC)c1ccc(Nc2nc(-c3ccc(Cl)cc3)cs2)cc1
11 | 1130 | CCOc1ccc(-n2c(=O)c3sccc3n(Cc3nc(-c4ccc(C)c(C)c4)no3)c2=O)cc1
12 | 728 | COCCc1noc(-c2ccc(=O)n(CC(=O)Nc3cc(F)ccc3F)c2)n1
13 | 883 | C[C@H]1CN(C(=O)Nc2cc(F)cc(F)c2)C[C@@H]1c1nc(-c2ccncc2)no1
14 | 576 | COc1ccc(C(=O)N2CCN(C(=O)c3ccco3)CC2)nn1
15 | 684 | O=C(c1cccc(C(F)(F)F)c1)N1CCN(c2nc(CN3CCCCC3)cs2)CC1
16 | 759 | COc1ccccc1-c1nc(C2CCN(C(=O)c3n[nH]c4c3CCCC4)CC2)no1
17 | 838 | O=C(Cc1ccc(Cl)cc1)N1C[C@@H]2C[C@H]1C[C@@H]2NS(=O)(=O)c1cccs1
18 | 713 | CCn1cc(-c2ccc(C)cc2)cc1C(=O)NCc1cccnc1
19 | 838 | CCN(C(=O)C1CCCN(c2ncnc3c2nc2n3CCCCC2)C1)c1ccccc1 (configuration not stated)
20 | 645 | CC(=O)N1c2ccc(S(=O)(=O)N3CCCCC3)cc2CC1C(=O)N1CCN(c2ccccn2)CC1 (configuration not stated)
21 | 968 | CCOC(=O)c1cc(S(=O)(=O)N2CCCC2C(=O)NC2CCCCCC2)cn1C (configuration not stated)
22 | 719 | CSc1ccc(-c2nc3cccc(C)n3c2Nc2ccc3c(c2)OCCO3)cc1

Row | RP-LC retention time [s] | Structure (SMILES)
23 | 765 | Cc1ccc2c(c1)cc(S(=O)(=O)c1ccccc1)c(=O)n2CC(=O)NCC1CCCO1 (configuration not stated)
24 | 735 | O=C(c1cc(C2CC2)[nH]n1)N1CC(n2cc(COc3ccc(F)cc3)nn2)C1
25 | 800 | COCc1cc2nn(CC(=O)Nc3ccccc3)c(=O)n2c(-c2ccccc2)n1
26 | 894 | COc1ccc(NC(=O)c2nnc(COCC(=O)NCCc3c[nH]c4ccc(Cl)cc34)s2)cc1
27 | 721 | Cc1ccc(S(=O)(=O)N2CCC(CN3CCCCCC3)CC2)cc1Cl
28 | 735 | O=C(NC1CC1)[C@@H]1C[C@H](Oc2ccccc2)CN1C(=O)C1CCC1
29 | 1180 | COc1ccc(CNS(=O)(=O)c2cc(-c3nc(C(C)C)cs3)sc2C)cc1
30 | 1070 | COc1ccc(N2CCN(S(=O)(=O)c3cc(-c4nc(C)cs4)cs3)CC2)cc1
31 | 864 | Cc1cc(S(=O)(=O)N2CC[C@H](n3c(=O)n(C)c4cccnc43)C2)ccc1F
32 | 864 | CCOc1ccccc1N1CCN(c2cc(C(=O)O)c3cc(NC(=O)C4CCC4)ccc3n2)CC1
33 | 770 | CCOc1ccc(C2NC(=O)NC(C)=C2C(=O)OC2CCCC2)cc1OC (configuration not stated)
34 | 877 | COc1ccc(NC(=O)c2c(OC)cc(=O)n3c2CCCC3)c(OC)c1
35 | 705 | CCn1cc(CCNC(=O)Nc2c(C)cccc2C)c2cccnc21
36 | 581 | CCCCN(C)CCNC(=O)c1ccc(N2CCCC2=O)cc1
37 | 582 | CCn1cc(C)c(C(=O)O)c1CC(=O)NCCN1CCOCC1
38 | 736 | CCc1ccc(S(=O)(=O)N2CCN(C3CCN(CCC(C)C)C3=O)CC2)cc1 (configuration not stated)
39 | 1390 | O=C(Nc1ccsc1-c1nnc(C2CC2)o1)c1cccc(Br)c1
40 | 744 | Cc1nn(-c2ccccc2)c(C)c1S(=O)(=O)N1CCC(C(=O)NC2CC2)CC1
41 | 951 | Fc1cccc(-c2noc(-c3nc(-c4ccncc4)no3)n2)c1
42 | 676 | CS(=O)(=O)Nc1cccc(NC(=O)Cc2csc(NC(=O)c3ccsc3)n2)c1
43 | 816 | Cc1noc(C)c1S(=O)(=O)N1CCC(CC(=O)NCCc2c[nH]c3ccccc23)CC1
44 | 694 | COc1ccc2[nH]c(=O)c(CCC(=O)NCc3cccc(OC)c3OC)cc2c1

Row | RP-LC retention time [s] | Structure (SMILES)
45 | 1090 | O=C(O)c1cc(-c2cccc3ccccc23)nc2ccc(Br)cc12
46 | 757 | Cc1cccc(CNC(=O)C2CCN(Cc3cn(C)c4ccc(Cl)cc34)CC2)c1
47 | 1130 | COC(=O)c1c(NC(=O)c2ccc([N+](=O)[O-])o2)sc(Cc2ccc3c(c2)OCO3)c1C
48 | 748 | CCC1(O)CCOC2(CCN(C(=O)CC3CCCC3)CC2)C1 (configuration not stated)
49 | 990 | COc1ccc(OC)c(S(=O)(=O)Cc2nc(-c3ccccc3C)no2)c1
50 | 904 | O=S(=O)(CCc1noc(-c2cccc(F)c2)n1)c1ccccc1
51 | 868 | Cn1c(=O)c2cc(C(=O)Nc3ccc(F)cc3)cnc2n(-c2ccccc2)c1=O
52 | 798 | CCOc1ccc(S(=O)(=O)N2CC(F)(F)C[C@H]2CN2CCc3ccccc3C2)cc1
53 | 771 | O=C(NCc1csc(C2CCCN(C(=O)c3cc(F)cc(F)c3)C2)n1)C1CCC1 (configuration not stated)
54 | 788 | Cc1cc(C)cc(N2C=C(C(=O)N3CCOCC3)S(=O)(=O)c3ccc(F)cc32)c1
55 | 811 | COc1ccc(Cl)cc1NC(=O)N1CCC(OC2CCN(S(C)(=O)=O)CC2)CC1
56 | 573 | CC(C)N1CCN(C(=O)C2CC(=O)N(CCc3ccccc3)C2)CC1 (configuration not stated)
57 | 1070 | Cc1nc2c(sc3nc(-c4ccccc4)ccc32)c(=O)n1CC(=O)Nc1ccccc1C(F)(F)F
58 | 716 | COc1ccc(C(=O)N2C[C@@H]3C[C@H](NC(=O)c4ccccc4)[C@H]2C3)c(OC)c1
59 | 931 | Cc1c(F)cccc1NC(=O)c1cc2n(n1)CCCC2
60 | 593 | Cc1ccc(NC(=O)Cn2nnc(C(=O)NCc3cccs3)c2N)cc1
61 | 739 | O=C(NCc1ccc(Cl)cc1)c1ccc2ccnc(N3CCN(C(=O)c4ccco4)CC3)c2c1
62 | 778 | O=C(NC1CCCCC1)C1CCCN(c2ncnc3c2nc2n3CCCCC2)C1 (configuration not stated)
63 | 615 | O=C(NCC(=O)N1CCN(c2ncccn2)CC1)c1c[nH]c2ccccc12
64 | 695 | Cn1nc(N2CCC(NC(=O)c3nccc4ccccc34)C2)ccc1=O (configuration not stated)
65 | 675 | COc1cccc(CNC(=O)C2CCCN(c3cnc4nccnc4c3)C2)c1OC (configuration not stated)
66 | 728 | O=C(NCC1CCOCC1)Nc1ccc(F)c(Cl)c1

Row | RP-LC retention time [s] | Structure (SMILES)
67 | 697 | CCN1C(=O)c2cccnc2Sc2cc(CNC(=O)c3ccn(CC)n3)ccc21
68 | 711 | N#Cc1cnc2ccccc2c1N1CCC(C(=O)N2CCc3ccccc3C2)CC1
69 | 665 | CCn1c(N2CCCC(C(=O)NCC3CCN(Cc4cc(C)ccc4C)CC3)C2)cc(=O)n(C)c1=O (configuration not stated)
70 | 611 | COc1ccc(OCC(=O)N2CCN(c3nc(CN4CCOCC4)cs3)CC2)cc1
71 | 1020 | CCCn1ccc2sc(C)c(C(=O)NCc3cc(C)ccc3C)c2c1=O
72 | 996 | CC(=O)c1ccc(NC(=O)CN2C(=O)C3CCCCN3c3ccc(C(=O)N4CCCC4)cc32)cc1 (configuration not stated)
73 | 822 | COc1ccccc1-c1nnc(NC(=O)c2ccc3c(c2)CCCC3)o1
74 | 900 | COc1ccc(OC)c(S(=O)(=O)N2CCc3c(c(-c4nnc(-c5ccc(F)cc5)o4)nn3C)C2)c1
75 | 757 | CCCCNC(=O)C1CCC(=O)N(c2ccc(OC)cc2)C1c1ccc(F)cc1 (configuration not stated)
76 | 718 | CCOc1ccc(NC(=O)Cc2nnc(-c3ccc4ncccc4c3)o2)cc1
77 | 598 | Cc1ccccc1C(=O)NCc1ccc2c(c1)ncn2C(C)C
78 | 1110 | CCOc1ccc(NC(=O)c2cn(-c3cc(N4CCC(C)CC4)ncn3)cn2)cc1
79 | 779 | CCN1C(=O)c2c(C(=O)NCc3ccccc3Cl)ncn2CC1(C)C(=O)NC1CCCC1 (configuration not stated)
80 | 560 | CCCn1c(C)cnc1CC1CCN(S(=O)(=O)c2ccc3c(c2)OCCO3)CC1
81 | 743 | COc1ccc(-c2cc3n(n2)CCCN(C(=O)NCc2ccco2)C3)cc1
82 | 1060 | Cc1ccc(-c2cc3c4nnc(SCC(=O)Nc5cccc(Cl)c5C)n4ccn3n2)cc1C
83 | 855 | COc1ccc(-c2noc(C3CCCN3C(=O)NCc3ccco3)n2)cc1 (configuration not stated)
84 | 933 | O=C1CC(c2noc(Cc3ccc(F)cc3)n2)CN1c1ccc(F)cc1 (configuration not stated)
85 | 892 | CC1(C)COc2ccc(NC(=O)c3cccc(Br)c3)cc2NC1=O
86 | 658 | Cn1nc(C(=O)N2CCOCC2)c2c1CCN(C(=O)Nc1ccccc1)C2

Row | Structure (SMILES) | RP-LC retention time [s]
87 | Cc1cc(OC(C)C(=O)N[C@H](C(=O)O)c2ccccc2)c2c3c(c(=O)oc2c1)CCC3 (some centres not stated) | 843
